Experimental data as given in patent US4575550A, “Platinum complexes” (Shionogi & Co., Ltd., priority 1981, dated 1986).

Legend:
Sarcoma 180 tumor cells [1] = test: Antitumor activity against Sarcoma-180 (Experiment 4, intravenous for 5 days); format: in vivo, DS mice; details: i.v., 5% glucose solution; for ED50: 14400 min
Description: (§1) Sarcoma 180 tumor cells (5×10^6 cells) are inoculated to DS mice (6 to 8 mice are employed in each test group) subcutaneously, and a predetermined amount of the test compounds is administered intraperitoneally for 5 days continuously from the next day of the inoculation.
The test was carried out in the same manner as in Experiment 1, wherein the test compounds were administered intravenously for 5 days.
The evaluation was made in the same manner as in Experiment 1.

Sarcoma 180 tumor cells [2] = test: Antitumor activity against Sarcoma-180 (Experiment 1, intraperitoneal for 5 days); format: in vivo, DS mice; details: i.p.; for ED50 (effective dose which inhibits the growth of tumors by 50%): 14400 min
Description: as §1

[3] = system: Leukemia L1210 ascites cells; test: Antitumor activity against L1210 (Experiment 2, intraperitoneal); format: in vivo, BDF1 mice; details: i.p.
Description: Leukemia L1210 ascites cells (10^5 cells) in mice are intraperitoneally inoculated to BDF1 mice (4 to 10 mice are employed in each test group), and on the next day a predetermined amount of the test compounds is administered intraperitoneally. The solvent for injection consists of 0.9% NaCl, 0.4% Polysorbate 80, 0.5% CMC, and 0.5% benzyl alcohol suspension.
From the average survival days (a) in the test group and those (b) of the untreated control group, the increase of lifespan (ILS) is calculated according to the following expression. [formula]

kidney = test: Nephro-toxicity (Experiment 3, once intraperitoneally); format: in vivo, male Sprague Dawley rats; parameters: key: .uparw.: increase; slight increase; .dwnarw.: decrease; ±: no change; details: once i.p., (A) 10 mg/kg, (B) 5 mg/kg, solvent 1: 5% glucose
Source text: Seven weeks-old male Sprague Dawley rats are separately accommodated in metabolic cages of stainless steel, and solid feed (Clea Japan, INC., CA-1 for breeding) and water are given so that they can take them freely. They are adapted for 3 days and then the test compounds are once administered to rats intraperitoneally at 10:00 a.m. […] The urine excreted during a period of 10 a.m. on the day of administration to 10 a.m. on the next day is defined as urine of the first day; on the urine of the 0-4th days the volume of urine excreted, creatinine, osmotic pressure, urinary enzyme N-acetyl-β-D-glucosaminidase (NAG), and lysozyme (LEZ) are measured, and further urinary protein and urinary sugar are examined with Labstix®. In the morning on the 5th day the rats are anatomized under anesthesia with Ouropan-Soda®(Shionogi & Co., Ltd.; Hexobarbital sodium), and the blood and pathologic specimens of the kidney and the liver are collected in order to determine the level of plasma urea nitrogen and creatinine, and osmotic pressure.

[4] = 0.9% NaCl, 0.4% Polysorbate 80, 0.5% CMC, 0.5% benzyl alcohol suspension
[5] = dose 2 × 1 (dose unit not given)
[6] = dose 5 × 1 (dose unit not given)
[7] = dose 10 × 1 (dose unit not given)
[8] = dose 20 × 1 (dose unit not given)

Molecule	ED50 (Sarcoma 180 tumor cells [1]) [mg/kg]	CI (curative index) (Sarcoma 180 tumor cells [1])	LD50 (Sarcoma 180 tumor cells [1]) [mg/kg]	ED50 (effective dose which inhibits the growth of tumors by 50%) (Sarcoma 180 tumor cells [2]; [4]) [mg/kg]	ED50 (effective dose which inhibits the growth of tumors by 50%) (Sarcoma 180 tumor cells [2]; solvent 5% glucose solution) [mg/kg]	increase of lifespan (ILS) [3, 5] [%]	increase of lifespan (ILS) [3, 6] [%]	increase of lifespan (ILS) [3, 7] [%]	increase of lifespan (ILS) [3, 8] [%]	also measured
N.N.O=C1C[O][Pt][O]1 [C, Glycolato-cis-diammineplatinum(II)]	18.7	–	–	–	–	–	–	–	–	–
Glycerato-cis-diammineplatinum(II)	44	4.2	186.6	–	–	–	–	–	–	–
N.N.O=C1COCC(=O)[O][Pt][O]1 [D, Diglycolato-cis-diammineplatinum(II)]	24.1	3.3	80.0	–	–	–	–	–	–	–
N.N.[Cl][Pt][Cl] [(B), Cisplatin, reference compound]	4.5	–	–	7.3	5.8	11	29	> 84	-26	–
Glucuronato-cis-diammineplatinum(II) [(A)]	63.4	2.9	186	34	33.4	4	12	14	> 55	Body Weight (g) (kidney): ±; Creatinine Clearance (kidney): ±; Excrement of Creatinine (mg/24 hrs./100 g BW) (kidney): ±; Excrement of Solute (mOsm/24 hrs./100 g BW) (kidney): ±; Kidney Weight (kidney): ±; LEZ (urinary lysozyme) (kidney): ±; Liver Weight (kidney): ±; Osmotic Pressure of Urine (mOsm/kg) (kidney): ±; Urinary Glucose (kidney): ±; Urinary Protein (kidney): ±; Volume of Urine (ml/24 hrs.) (kidney): ±; Plasma Creatinine (kidney; 5th day): ±; Plasma Osmotic Pressure (kidney; 5th day): ±; Plasma Urea Nitrogen (kidney; 5th day): ±; CI (curative index) (Sarcoma 180 tumor cells [2]; [4]): 3.3; LD50 (50% lethal dose) (Sarcoma 180 tumor cells [2]; [4]): 113.5 mg/kg; CI (curative index) (Sarcoma 180 tumor cells [2]; solvent 5% glucose solution): 2.8; LD50 (50% lethal dose) (Sarcoma 180 tumor cells [2]; solvent 5% glucose solution): 93.4 mg/kg
